Experimental data reported in PMC5056392, “CD4-mimetic sulfopeptide conjugates display sub-nanomolar anti-HIV-1 activity and protect macaques against a SHIV162P3 vaginal challenge” (Scientific Reports, 2016).
Like-named read-outs stand apart in the source and are kept apart here.

Legend:
[1] = test system: SHIV162P3; settings: TZM-bl cells; cited from earlier work
Source text: (§1) Similarly, HEC gel formulated cyanovirin was s ...

[2] = test system: SHIV; settings: cited from earlier work
Source text: as §1

[3] = test system: HIV-1 IIIB; test: TZM-bl antiviral assay, IIIB; format: cell-based; settings: Human immunodeficiency virus 1, IIIB; Table 2; B-X4; 10^-3 MOI, TZM-bl cells, 48 h; mean of at least 2 independent experiments, triplicates
Description: (§2) The IC50 of the various mCD4-conjugates were measured in TZM-bl cells (NIH AIDS Reagent Program, Germantown, MD 20874, US). This cell line expresses high densities of CD4, CCR5 and CXCR4. It contains a luciferase reporter gene under control of HIV LTR, which will be transcribed and translated into luciferase protein, if the cells get infected with HIV and start producing Tat. Briefly, 50 μl of TZM-bl cells (1 × 10^5 cells/mL) supplemented with 30 μg/mL DEAE dextran were incubated with a 50 μl of a 10-fold serial dilution of the compounds under investigation in 96-well flat bottom plates, prior to inoculation with 50 μl of various viruses (see Tables & and 2; 50, 100 or 200 TCID50 was used depending on the virus). As a positive control, 50 μl of compound-free medium was used and as a negative control, 100 μl of medium was added to 100 μl of TZM-bl cells. All conditions were done in triplicates. The plates were incubated for 48 hours (37 °C, 5% CO2). […] Next, the luciferase activity was measured using a TriStar LB941 luminometer (Berthold Technologies GmbH & Co. KG., Bad Wildbad, Germany) and expressed in relative light units (RLU) as a percentage of positive control wells. IC50 were calculated in GraphPad Prism 5.03 using non-linear regression (GraphPad Software, San Diego, CA, USA).

[4] = test system: HIV-1; settings: vaginal gel formulation (Tenofovir) or vaginal ring (Dapivirin); cited from earlier work
Description: Microbicides offer distinct advantages as their use should reduce side effects associated with systemic treatment and they could prevent the establishment of viral founder populations. Up to now several molecules targeting the attachment and entry of HIV were tested in clinical trials, including surfactants, such as nonoxynol–9 and C31G that disrupt the viral lipid envelope and non-specific polyanions, such as carrageenan, cellulose sulfate, as well as a sulfonated naphthalene derivative (PRO2000), presumably mimicking heparan sulfate (HS) and blocking virus-cell interactions. ...

[5] = test system: TZM-bl cells; test: WST-1 cytotoxicity assay; format: cell-based; settings: Table 2, 50% cytotoxic concentration, WST-1, 48 h
Description: The water soluble tetrazolium-1 (WST-1) cell proliferation assay is based on the cleavage of the tetrazolium salt WST-1 to a formazan dye by a complex cellular mechanism. Because this bioreduction is dependent on the glycolytic production of NAD(P)H in viable cells, the amount of formazan dye formed is correlates directly to the number of viable cells in a culture. Quantification is done by measuring absorbance at 450 nm in a multiwell plate reader. TZMbl cells (10^4 cells/well) were plated in a 96-well plate and a serial dilution of compound was added. 48 h later, cell proliferation reagent was added and cell viability was measured compared to untreated control cultures. Cell viability was plotted against the compound concentration and non-linear regression analysis was performed to calculate the 50% cytotoxic concentration (CC50).

[6] = test system: HIV-1 VI829; test: TZM-bl antiviral assay, VI829; format: cell-based; settings: Human immunodeficiency virus 1; Table 2; C-R5; 10^-3 MOI, TZM-bl cells, 48 h; mean of at least 2 independent experiments, triplicates
Description: as §2

[7] = test system: HIV-1 SF162; test: TZM-bl antiviral assay, SF162; format: cell-based; settings: Human immunodeficiency virus 1; Table 2; B-R5; 10^-3 MOI, TZM-bl cells, 48 h; mean of at least 2 independent experiments, triplicates
Description: as §2

[8] = test system: HIV-1 VI820; test: TZM-bl antiviral assay, VI820; format: cell-based; settings: Human immunodeficiency virus 1; Table 2; A-X4R5; 10^-3 MOI, TZM-bl cells, 48 h; mean of at least 2 independent experiments, triplicates
Description: as §2

[9] = test system: HIV-1 MN; test: TZM-bl antiviral assay, MN; format: cell-based; settings: Human immunodeficiency virus 1; Table 2; B-X4; 10^-3 MOI, TZM-bl cells, 48 h; mean of at least 2 independent experiments, triplicates
Description: as §2

[10] = test system: SHIV162P3; test: TZM-bl antiviral assay, SHIV162P3; format: cell-based, SHIV; settings: Table 2; B-R5; 10^-3 MOI, TZM-bl cells, 48 h; mean of at least 2 independent experiments, triplicates
Description: as §2

[11] = test system: HIV strains from different subtypes; test: TZM-bl antiviral assay, whole panel of strains; format: cell-based, HIV-1; settings: Human immunodeficiency virus 1, TZM-bl, read-out: active concentration across the panel
Description: as §2

[12] = test system: HIV-1 Bal; test: TZM-bl antiviral assay, Bal; format: cell-based; settings: Human immunodeficiency virus 1, BAL; Table 2; B-R5; 10^-3 MOI, TZM-bl cells, 48 h; mean of at least 2 independent experiments, triplicates
Description: as §2

[13] = test system: HIV-1 Ca10-3 (CRF01); test: microbe, parasite or virus in culture; format: cell-based; settings: Human immunodeficiency virus 1, TZM-bl, 48 h, read-out: IC50 Ca10-3 (CRF01)
Description: (§3) The IC50 of the various mCD4-conjugates were measured in TZM-bl cells (NIH AIDS Reagent Program, Germantown, MD 20874, US). This cell line expresses high densities of CD4, CCR5 and CXCR4. It contains a luciferase reporter gene under control of HIV LTR, which will be transcribed and translated into luciferase protein, if the cells get infected with HIV and start producing Tat. Briefly, 50 μl of TZM-bl cells (1 × 10^5 cells/mL) supplemented with 30 μg/mL DEAE dextran were incubated with a 50 μl of a 10-fold serial dilution of the compounds under investigation in 96-well flat bottom plates, prior to inoculation with 50 μl of various viruses (see Tables & and 2; 50, 100 or 200 TCID50 was used depending on the virus). As a positive control, 50 μl of compound-free medium was used and as a negative control, 100 μl of medium was added to 100 μl of TZM-bl cells. All conditions were done in triplicates. The plates were incubated for 48 hours (37 °C, 5% CO2). Subsequently, 120 μL of supernatants were removed, 75 μl of the luciferase substrate Steadylite (Perkin Elmer, Life Sciences, Zaventem, Belgium) were added to the wells and the plates were incubated at room temperature on an orbital shaker for 10 minutes. Next, the luciferase activity was measured using a TriStar LB941 luminometer (Berthold Technologies GmbH & Co. KG., Bad Wildbad, Germany) and expressed in relative light units (RLU) as a percentage of positive control wells. IC50 were calculated in GraphPad Prism 5.03 using non-linear regression (GraphPad Software, San Diego, CA, USA).

[14] = test system: HIV-1 pREJO.c/2864 cl2; test: microbe, parasite or virus in culture; format: cell-based; settings: Human immunodeficiency virus 1, TZM-bl, 48 h, read-out: IC50 pREJO.c/2864 cl2
Description: as §3

[15] = test system: HIV-1 VI1888 (CRF01); test: microbe, parasite or virus in culture; format: cell-based; settings: Human immunodeficiency virus 1, TZM-bl, 48 h, read-out: IC50 VI1888 (CRF01)
Description: as §3

[16] = test system: HIV-1 pTHRO.c/2626; test: microbe, parasite or virus in culture; format: cell-based; settings: Human immunodeficiency virus 1, TZM-bl, 48 h, read-out: IC50 pTHRO.c/2626
Description: as §3

[17] = test system: HIV-1 VI824; test: microbe, parasite or virus in culture; format: cell-based; settings: Human immunodeficiency virus 1, TZM-bl, 48 h, read-out: IC50 VI824
Description: as §3

[18] = test system: HIV-1 MP568 (CRF02); test: microbe, parasite or virus in culture; format: cell-based; settings: Human immunodeficiency virus 1, TZM-bl, 48 h, read-out: IC50 MP568 (CRF02)
Description: as §3

[19] = test system: HIV-1 pZM247Fv2; test: microbe, parasite or virus in culture; format: cell-based; settings: Human immunodeficiency virus 1, TZM-bl, 48 h, read-out: IC50 pZM247Fv2
Description: as §3

[20] = test system: HIV-1 p246F10; test: microbe, parasite or virus in culture; format: cell-based; settings: Human immunodeficiency virus 1, TZM-bl, 48 h, read-out: IC50 P246F10
Description: as §3

[21] = test system: HIV-1 pWITO.c/2474; test: microbe, parasite or virus in culture; format: cell-based; settings: Human immunodeficiency virus 1, TZM-bl, 48 h, read-out: IC50 pWITO.c/2474
Description: as §3

[22] = HEC gel formulated, applied at 0.5 to 2 mM

COc1ccnc2[nH]cc(C(=O)C(=O)N3CCN(C(=O)c4ccccc4)C[C@H]3C)c12 [BMS-378806]
IC50 [1]: 5.5 nM | protection ([2]; administered at 5.5 mM): 75%

Cc1cc(C)c(Nc2ccnc(Nc3ccc(C#N)cc3)n2)c(C)c1 [TMC120 Dapivirine, Dapivirine]
IC50 [3]: 0.84 nM | reduction in HIV-1 acquisition [4]: up to 40% | CC50 [5]: 2524 nM | IC50 [6]: 1.3 nM | IC50 [7]: 1.3 nM | IC50 [8]: 2 nM | IC50 [9]: 1.5 nM | IC50 [10]: > 1000 nM | IC50 [11]: 1 to 2 nM | IC50 [12]: 1.7 nM | IC50 [13]: 1.2 nM | IC50 [14]: 1.6 nM | IC50 [15]: 2.1 nM | IC50 [16]: 1.9 nM | IC50 [17]: 1.2 nM | IC50 [18]: 1.1 nM | IC50 [19]: 2.3 nM | IC50 [20]: 1.4 nM | IC50 [21]: 1.1 nM

C[C@H](Cn1cnc2c(N)ncnc21)OCP(=O)(O)O [Tenofovir]
reduction in HIV-1 acquisition [4]: up to 40%

maraviroc
protection ([2]; 500 μM intravaginally): 50% | macaques remaining uninfected ([2]; 6 mM intravaginally): 6 of 7

B1: cyanovirin: HEC gel formulated cyanovirin (protein, UniProt P81180 1-101, looked up)
Cyanovirin-N: LGKFSQTCYNSAIQGSVLTSTCERTNGGYNTSSIDLNSVIENVDGSLKWQPSNFIETCRNTQLAGSSELAAECKTRAQQFVSTKINLDDHIANIDGTLKYE
modifications: HEC gel formulation
animals protected [2, 22]: 5 out of 6 | protection [2, 22]: 83%
